Reference: patent publication US20260283997A1, “METHODS FOR INHIBITING RESISTANCE TO IMMUNE BLOCKADE INHIBITOR THERAPY” (H. LEE MOFFITT CANCER CENTER AND RESEARCH INSTITUTE, INC., priority 2023, published 2026)
“Also recorded” adds a separate entry of the source.

What was measured:
[1] = test system: stage IIIB through IV melanoma; conditions: adjuvant, cited from earlier work; for 12-month RFS rate: stage IIIB through IV melanoma
[2] = test system: stage III melanoma; conditions: cited from earlier work
[3] = test system: resected stages IIIC/IV melanoma; assay: Phase II trial of adjuvant ipilimumab with a peptide vaccine, clinical outcome; format: in vivo, human
Protocol: Patient samples. […] Peripheral blood leukocytes were collected before initiation of ipilimumab treatment and at approximately 150 days after the first treatment. PBMCs were available and were de-identified before inclusion in our current study.
Statistical analyses. We conducted statistical analyses to determine whether there is a relationship between levels of pSTAT1, nSTAT1, and RFS. Survival outcome was summarized using Kaplan-Meier method and log-rank test was performed to evaluate the association of survival outcome with pSTAT1 and nSTAT1 levels dichotomized by the median-split method. […] Levene's F-test for the homogeneity of variance was used to compare variance of pSTAT1 level among patients with different RFS rates. Patients were also stratified using the median-split method for a survival comparison analysis of [nSTAT1]post-[nSTAT1]pre with ipilimumab treatment. […] A two-sided P value of <0.05 was considered statistically significant. Treatment outcome is reported at the end of the follow up period for the parent trial (5 years).
Patient demographics. Pre- and post-therapy PBMCs were available from 35 patients with resected stages IIIC/IV melanoma.

[4] = test system: STAT1; assay: pSTAT1 flow cytometry of patient PBMCs pre versus post ipilimumab; format: in vivo, human
Protocol: FIGS. 22A, 22B, and 22C show the paired pSTAT1 level pre versus post ipilimumab treatment without (FIG. 22A) Interferon-alpha stimulation, after (FIG. 22B) 10^2 U/mL Interferon-alpha stimulation, and (FIG. 22C) 10^4 U/mL Interferon-alpha stimulation.
(§1) Flow cytometry and mass spectrometry analyses. Flow cytometric analysis of pSTAT1 and liquid chromatography-tandem mass spectrometry (LC-MS-MS) analysis of nitrated STAT1 (nSTAT1) were conducted on all samples. For flow cytometry studies, frozen PBMCs were thawed at 37° C., washed with culturing media, and allowed to rest overnight in complete media at 5% CO2 at 37° C. PBMCs were stimulated with interferon-α (Miltenyi Biotec, Cambridge, MA) at 0, 10^2 U/mL, and 10^4 U/mL and incubated for 15 minutes in media.
The live/dead marker Zombie NIR (BioLegend, San Diego, CA) was used before permeabilization to distinguish live cells. The samples were permeabilized using the FIX & PERM Cell Permeabilization Kit with methanol modification (Fisher Scientific, Hampton, MA) and fixed at −20° C. for a minimum of 2 hours. pSTAT1 was detected by a pSTAT1 antibody (AF488; BD Biosciences, San Jose, CA). Flow cytometry data were collected either on Canto or LSRII flow cytometers (BD Biosciences, San Jose, CA), and data were analyzed in FCS Express (De Novo Software, Pasadena, CA). […]

[5] = test system: STAT1; assay: pSTAT1 flow cytometry of normal donor PBMCs stimulated with interferon-alpha; format: cell-based, human
Protocol: FIGS. 20A, 20B, and 20C show Interferon-alpha stimulation of normal donors PBMCs.
as §1
The live/dead marker Zombie NIR (BioLegend, San Diego, CA) was used before permeabilization to distinguish live cells. The samples were permeabilized using the FIX & PERM Cell Permeabilization Kit with methanol modification (Fisher Scientific, Hampton, MA) and fixed at −20° C. for a minimum of 2 hours. pSTAT1 was detected by a pSTAT1 antibody (AF488; BD Biosciences, San Jose, CA). Flow cytometry data were collected either on Canto or LSRII flow cytometers (BD Biosciences, San Jose, CA), and data were analyzed in FCS Express (De Novo Software, Pasadena, CA). Measurement of patient-derived PBMCs for nSTAT1 and native STAT1 via LC-MS-MS SRM experiments was performed. […]

[6] = test system: antigen presentation from DCs to CD4+ T cells; assay: DC antigen presentation to OT-II CD4+ T cells, [3H]-thymidine incorporation; format: cell-based, mouse; conditions: for MDSC inhibition of antigen presentation in the presence of iNOS inhibitor: MDSCs derived from B16 melanoma, OVA peptide stimulus
Protocol: For space constraints only the OVA peptide stimulus is depicted in B and C.
The effects of NO on DC function using transgenic mice were evaluated that express a T cell receptor (TCR) specific for a defined antigen, namely OVA. […] Levels of SNAP or other NO donors such as deta-NONOate can be adjusted to mimic the physiological concentration of NO within MDSCs and be utilized to directly measure binding of tetramers to the TCR complex. To simulate a real world scenario of antigen expressed naturally by the B16 tumors as advised by the reviewers, We can utilize transgenic mice that express a T cell receptor (TCR) specific for the Tyrosinase-Related Protein 1 (Trp-1).

[7] = test system: STAT1; assay: Nitrated STAT1 by immunoblot after nitrated tyrosine immunoprecipitation in normal donor PBMC; format: cell-based; conditions: normal donor human PBMC
Excerpt: An increased [nSTAT1]/[STAT1] ratio can be associated with resistance to anti-PD-1 therapy. Unfractionated PBMC samples are utilized for the mass spectrometry experiments as they are routinely collected from patients and with the expectation of STAT1 having increased nitration (FIG. 4). A second aliquot of PBMCs from the patients can be stimulated in parallel with IFN and subsequent downstream activation determined via measurement of phosphorylated STAT1. Activation of STAT1 can be measured by intracellular staining for activated (i.e. phosphorylated) STAT1 using flow cytometry. IFN responsiveness decreases by ~30% in metastatic cancer patients. There is an inverse relationship between the levels of pSTAT1 and levels of nitrated STAT1. As a control, STAT1 nitration can be measured in normal donor PBMCs treated with SNAP via immunoblot (FIG. 13). As such, PBMCs from melanoma patients can be compared to normal donors. […] Additional nitrated proteins can be quantified in the future via LC-MRM (Liquid Chromatography, multiple reaction monitoring) including the targets outlined in the introductory material (assay requires <200,000 cells); and can expand the list of which nitration events are important for response to anti-PD1 therapy in case STAT1 is not the only important target.

[8] = test system: T cells; assay: T cell proliferation after tetanus toxoid antigen presentation from human DC in PBMC sample; format: cell-based; conditions: tetanus toxoid 1 ug/ul
[9] = test system: B16 melanoma cells; assay: Cytotoxicity of PMEL CD8 T cells against gp-100 coated B16 cells, flow cytometry; format: cell-based; conditions: 100 μM; p=0.02
Protocol: Cytoxicity was measured via flow cytometry with CellTrace™ Far Red (B16 cells) and a live/dead marker (Zombie™ Green).

[10] = test system: B16 melanoma; assay: PD-1 refractory B16 melanoma model; format: in vivo, mouse
Excerpt: NCX-4016 is a nitroaspirin and inhibits the nitric oxide synthase via a negative feedback mechanism. These compounds are available for clinical trial use, and have a toxicity profile that is favorable for evaluation in patients with advanced malignancies. I predict nitroaspirin compounds in combination with anti-PD-1 therapy can rescue the ability to stimulate CD4^+ T cells and decrease tumor growth. […] We can use nitroaspirin alone and along with anti-PD-1 in therapeutically achievable doses in the murine B16 melanoma model to measure tumor growth curves and obtain specimens for analyses.

[11] = n = 35, end of follow up period (5 years)

For “nivolumab: Monoclonal antibody against PD-1”, the “12-month RFS rate” value [1] is listed as 70.5% and the “toxicity compared to ipilimumab” value [1] is listed as “significantly decreased toxicity”.

For “pembrolizumab: Monoclonal antibody against PD-1”, the “efficacy compared to interferon-α or ipilimumab” value [2] is given as “increased efficacy”.

In the case of “ipilimumab: Monoclonal antibody against CTLA-4”, the “12-month RFS rate” value [1] is listed as 60.8%, the “RFS, 3 mg/kg vs 10 mg/kg” value ([3]; Log rank P-value=0.96) is listed as “no statistical significant differences in RFS” and the “Treatment outcome AWD (alive with disease), Percentage” value [3, 11] is listed as 6%. For the same compound, the “Treatment outcome DOD (died of disease), Percentage” value [3, 11] was 17%, the “Treatment outcome NED (no evidence of disease), Percentage” value [3, 11] was 77% and the “levels of STAT1 pre versus post treatment” value ([4]; 10 mg/kg cohort, t-test, p<0.01) was “statistically significant increase”. The “changes in pSTAT1 between the 10 mg/kg and 3 mg/kg cohorts” value ([4]; 150 days post treatment) was “no statistically significant changes in pSTAT1”.

For interferon-α, the “pSTAT1 levels with increasing interferon levels” value [5] was “concentration-dependent increase in pSTAT1 levels” and the “concentration showing near-maximum phosphorylation of STAT1” value ([5]; 15 minutes of treatment) was 500 U/ml.

For `CC(=O)NC(C(=O)O)C(C)(C)SN=O` (racemic) [SNAP, S-Nitroso-N-Acetyl-D,L-Penicillamine], the “DC antigen presentation to CD4+ T cells (proliferation of OT-II T cells)” value ([6]; nitric oxide donor SNAP, DCs and CD4+ T cells ratio 1:4 from OT-II mouse) was “inhibit DC antigen presentation to CD4+ T cells”, the “levels of nitrated STAT1” value [7] was “elevated levels of nitrated STAT1” and the “proliferation of T cells after antigen presentation of tetanus toxoid” value [8] was “decreases proliferation of T cells”. The “cytotoxicity of target B16 melanoma cells by effector PMEL CD8 T cells” value [9] was “reduced”.

With `COC(=O)[C@@H](N)CCCNC(=N)N[N+](=O)[O-]` [L-NAME, L-nitroarginine methyl ester] the “MDSC inhibition of antigen presentation in the presence of iNOS inhibitor” value [6] was “this effect was abrogated”.

With `CC(=O)Oc1ccccc1C(=O)Oc1cccc(CO[N+](=O)[O-])c1` [NCX-4016] the “iNOS expression with iNOS inhibitor in-vivo” value ([10]; B16 melanoma model) was “iNOS expression is decreased”, the “efficacy in combination with anti-PD1 blockade” value ([10]; PD-1 refractory B16 melanoma model, combination with anti-PD-1) was “more efficacious than either treatment alone; also recorded: increases the efficacy of anti-PD1 blockade” and the “MDSC inhibition of antigen presentation in the presence of iNOS inhibitor” value [6] was “this effect was abrogated”.
